Reference: patent publication US10577382B2, “Fused heterocyclic compound” (TAKEDA PHARMACEUTICAL COMPANY LIMITED, priority 2016, dated 2020)

How the values were obtained:
p53 protein = assay: p53 induction activity in HCT116 cells (western blot); assay type: cell-based, human; conditions: 300 nM, 16 hours, relative to control group
Method: (§1) 1000 μl (8,0000 cells/well) of a cell suspension of human colon adenocarcinoma cells HCT116 (purchased from ATCC) was seeded in a 12-well plate, and cultured at 37° C. for 2 days in a 5% CO2 gas incubator. The test compound solution was added to a final concentration of 300 nM, and the mixture was cultured for 16 hours. The plate was washed with PBS, a protein extract (10% glycerol, 1% sodium dodecyl sulfate, 62.5 mM Tris-HCl (pH: 7.5)) was then added to dissolve the cells, and the solution was treated at 95° C. for 5 minutes. Thereafter, the amount of protein was determined using BCA Protein Assay Kit (Thermo Fisher Scientific).
(§2) The amount of the protein in each sample was adjusted, SDS-PAGE was then performed, and the protein was transferred to a PVDF membrane using an iBlot (registered trademark) gel transfer system (Invitrogen). […] The membrane was washed in the same procedure as described above, a phosphorylated CLK2 protein, a MDM4 protein, a p53 protein and a p21 protein each labeled with an antibody were then made chemiluminescent using ImmunoStar ZETA (Wako Pure Chemical Industries, Ltd.), and luminescence was detected with LAS-3000 Image Analyzer (Fujifilm Corporation). The luminescence intensity was determined using Multi Gauge Ver. 3.1 (Fujifilm Corporation), and quantified. […]

[1] = target: T1, phosphorylated CLK2 protein (Ser98) (Homo sapiens, UniProt P49760); assay: In vitro CLK2 phosphorylation inhibitory action in HCT116 cells (western blot); assay type: cell-based; conditions: 300 nM, 16 hours, relative to control group
T1 construct: endogenous in cells; host or cells: HCT116 (ATCC)
Method: as §1, §2

SK-MEL-28-Control cells = assay: Growth inhibitory action on SK-MEL-28-Control cells (CellTiter-Glo); assay type: cell-based, human; conditions: 125 nM, 3 days
Excerpt: Human MYC cDNA was inserted downstream of the TRE of a lentiviral vector (modified pTRIPZ: GE Healthcare) having a tetracycline responsive sequence (TRE) in the promoter region. The produced virus was infected with human malignant melanoma cells SK-MEL-28 (purchased from ATCC) to establish SK-MEL-28 cells (SK-MEL-28-MYC) inducing expression of MYC in the presence of doxycycline (Takara Bio Inc.) which is a tetracycline derivative. SK-MEL-28 cells (SK-MEL-28-Control) having an empty vector with only modified pTRIPZ were also established. 20 μL/well of 2.5 μg/mL doxycycline-containing medium was added to a 96-well plate, and 80 μl/well (1,000 cells/well) of a cell suspension was added, and cultured at 37° C. for 2 days in a 5% CO2 gas incubator. Thereafter, 100 μl of a 250 nM test compound solution was added (final concentration: 125 nM), and the mixture was further cultured for 3 days. 50 µl/well of a CellTiter-Glo™ Luminescent Cell Viability Assay reagent (Promega Corporation) was added to a 96-well plate, the amount of luminescence was measured by a luminometer, and the amount of remaining ATP was determined as a cell amount. The inhibition ratio (%) of cell growth by the test compound was calculated in accordance with the following expression. Inhibition ratio (%)=(1−(amount of luminescence of test compound)÷(amount of luminescence of control group))×100

p21 protein = assay: p21 induction activity in HCT116 cells (western blot); assay type: cell-based, human; conditions: 300 nM, 16 hours, relative to control group
Method: as §1, §2

HCT116 cells = assay: Growth inhibitory activity using HCT116 cells (Cell Titer-Glo); assay type: cell-based, human; conditions: Homo sapiens, HCT-116, 72 h, compound 1 μM, 3 days, read-out: Cell growth inhibition ratio at compound concentration of 1 μM
Method: HCT 116 cells (ATCC) were seeded in a 384-well plate at a density of 6×10^2 cells/well, and cultured overnight in a cell culture medium McCoy's 5A (Thermo Fisher Scientific) containing 10% FBS (fetal bovine serum) and 1% penicillin/streptomycin. The dissolved test compound was added in the cell medium, and the cell medium was left standing in a CO2 incubator (37° C.) for 3 days. A Cell Titer-Glo solution (Promega Corporation) was added, the mixture was stirred at room temperature for 10 minutes, and the emission value was measured by Envision (PerkinElmer). The inhibition ratio (%) of HCT116 cell growth by the test compound was calculated in accordance with the following expression. Inhibition ratio (%)=(1−(count of test compound−blank)÷(control−blank))×100
The count of the HCT116 cell suspension without addition of the compound was described as a control, and the count without addition of the compound and addition of HCT116 cells was described as a blank. The concentration at which the inhibition ratio was 50% was defined as an IC50 value.

T1 sequence (P49760 whole entry): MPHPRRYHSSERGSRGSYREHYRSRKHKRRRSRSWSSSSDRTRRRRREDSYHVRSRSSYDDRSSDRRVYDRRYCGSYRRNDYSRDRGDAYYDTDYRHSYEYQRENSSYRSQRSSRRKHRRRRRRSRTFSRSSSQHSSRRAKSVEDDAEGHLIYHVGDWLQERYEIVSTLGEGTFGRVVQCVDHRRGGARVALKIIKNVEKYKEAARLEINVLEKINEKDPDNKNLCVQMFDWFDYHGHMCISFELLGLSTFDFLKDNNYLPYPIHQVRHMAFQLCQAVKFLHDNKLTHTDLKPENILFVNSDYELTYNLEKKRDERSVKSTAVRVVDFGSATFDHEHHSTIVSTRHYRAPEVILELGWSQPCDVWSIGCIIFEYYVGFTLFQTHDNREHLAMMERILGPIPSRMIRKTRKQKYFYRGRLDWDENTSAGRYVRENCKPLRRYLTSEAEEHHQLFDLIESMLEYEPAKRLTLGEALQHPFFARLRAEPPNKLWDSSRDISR

With `COc1ncnn2ccc(-c3cnc4nc(C)n(Cc5nnc([C@@H](C)F)o5)c4c3)c12` [Example 286, 1-((5-((1R)-1-fluoroethyl)-1,3,4-oxadiazol-2-yl)methyl)-6-(4-methoxypyrrolo[2,1-f][1,2,4]triazin-5-yl)-2-methyl-1H-imidazo[4,5-b]pyridine] the “Increase ratio (p53)” value (p53 protein) was 620.7%, the “Residual ratio (phosphorylated CLK2)” value [1] was 71.4% and the “Inhibition ratio (%) of cell growth, Doxycycline (+)” value (SK-MEL-28-Control cells; Doxycycline (+)) was 35.7%. The “Inhibition ratio (%) of cell growth, Doxycycline (−)” value (SK-MEL-28-Control cells; Doxycycline (−)) was 34.4%, the “Increase ratio (p21)” value (p21 protein) was 556.4% and the inhibition at 1 µM (HCT116 cells) was 95%.
